According to patent US11779585B2 (priority 2020, dated 2023):
Values joined by “and” are separate entries in the source; they are usually repeats but may differ in a detail not shown here. Identical values can stand only once. Like-named read-outs stand apart in the source and are kept apart here.

Key:
MERS-CoV = details: Dyall et al.; cited from earlier work
SARS-CoV2 = experiment: microbe, parasite or virus in culture; assay type: cell-based, SARS-CoV-2
SARS-CoV = details: Dyall et al.; cited from earlier work
Vero E6 cells = details: hydrochloride
2019-nCoV = details: Wang et al., not in Table 7; cited from earlier work
[1] = Severe acute respiratory syndrome coronavirus 2, Vero C1008

CN(C)CCCN1c2ccccc2Sc2ccc(Cl)cc21.Cl [Chlorpromazine HCl, chlorpromazine HCl, reference compound]
IC50 (MERS-CoV): 9.5 µM
Inhibition (SARS-CoV2; 30 µM, HCl): 100.2%
Inhibition (SARS-CoV2; 60 µM, HCl): 100.2%
IC50 (SARS-CoV2; [1]): 7.2 µM
inhibition at 30 µM (SARS-CoV2; [1]): 100%
IC50 (SARS-CoV): 13 µM

Cl.NC(=O)c1cn([C@@H]2O[C@H](CO)[C@@H](O)[C@H]2O)c2ncnc(N)c12 [Oya2, 4-amino-7-((2R,3R,4S,5R)-3,4-dihydroxy-5-(hydroxymethyl)tetrahydrofuran-2-yl)-7H-pyrrolo[2,3-d]pyrimidine-5-carboxamide hydrochloride]
Cytotoxicity (Vero E6 cells; 0.0047 μM, MOI 0.6, Plate 1): −2.54% and −1.465% and −2.751%
Cytotoxicity (Vero E6 cells; 0.0047 μM, MOI 0.6, Plate 2): −2.54% and −1.465% and −2.751%
Cytotoxicity (Vero E6 cells; 0.0094 μM, MOI 0.6, Plate 1): 0.4496% and −3.731% and −1.047%
Cytotoxicity (Vero E6 cells; 0.0094 μM, MOI 0.6, Plate 2): 0.4496% and −3.731% and −1.047%
Cytotoxicity (Vero E6 cells; 0.0188 μM, MOI 0.6, Plate 1): −1.946% and −1.045% and −1.4651%
Cytotoxicity (Vero E6 cells; 0.0188 μM, MOI 0.6, Plate 2): −1.946% and −1.045% and −1.4651%
Cytotoxicity (Vero E6 cells; 0.075 μM, MOI 0.6, Plate 1): 16.08% and 19.63% and 18.13%
Cytotoxicity (Vero E6 cells; 0.075 μM, MOI 0.6, Plate 2): 16.08% and 19.63% and 18.13%
Cytotoxicity (Vero E6 cells; 0.15 μM, MOI 0.6, Plate 1): 35.37% and 35.25% and 31.56%
Cytotoxicity (Vero E6 cells; 0.15 μM, MOI 0.6, Plate 2): 35.37% and 35.25% and 31.56%
Cytotoxicity (Vero E6 cells; 0.3 μM, MOI 0.6, Plate 1): 55.54% and 56.53% and 57.44%
Cytotoxicity (Vero E6 cells; 0.3 μM, MOI 0.6, Plate 2): 55.54% and 56.53% and 57.44%
Cytotoxicity (Vero E6 cells; 0.6 μM, MOI 0.6, Plate 1): 69.74% and 68.71% and 69.51%
Cytotoxicity (Vero E6 cells; 0.6 μM, MOI 0.6, Plate 2): 69.74% and 68.71% and 69.51%
Inhibition (SARS-CoV2; 0.0047 μM, MOI 0.6, Plate 2, hydrochloride): 6.759% and 2.316%
Inhibition (SARS-CoV2; 0.0047 μM, title MOI 0.6 (text MOI 1.3), Plate 1, hydrochloride): −4.548% and −2.306% and −5.003%
Inhibition (SARS-CoV2; 0.0047 μM, title MOI 0.6 (text MOI 1.3), Plate 2, hydrochloride): −12.4801% and −9.091%
Inhibition (SARS-CoV2; 0.0094 μM, MOI 0.6, Plate 2, hydrochloride): 22.21%
Inhibition (SARS-CoV2; 0.0094 μM, title MOI 0.6 (text MOI 1.3), Plate 2, hydrochloride): −4.5066% and −0.5728% and 3.754%
Inhibition (SARS-CoV2; 0.0188 μM, MOI 0.6, Plate 2, hydrochloride): 9.743% and 4.635%
Inhibition (SARS-CoV2; 0.0188 μM, title MOI 0.6 (text MOI 1.3), Plate 1, hydrochloride): 1.888% and −0.5178% and 4.439%
Inhibition (SARS-CoV2; 0.0375 μM, MOI 0.6, Plate 1, hydrochloride): 12.21% and 2.813% and 5.217%
Inhibition (SARS-CoV2; 0.0375 μM, MOI 0.6, Plate 2, hydrochloride): −1.2509% and −10.9963%
Inhibition (SARS-CoV2; 0.0375 μM, title MOI 0.6 (text MOI 1.3), Plate 2, hydrochloride): 9.292% and 6.13%
Inhibition (SARS-CoV2; 0.075 μM, MOI 0.6, Plate 1, hydrochloride): 48.8% and 30.54%
Inhibition (SARS-CoV2; 0.075 μM, MOI 0.6, Plate 2, hydrochloride): 77.73%
Inhibition (SARS-CoV2; 0.15 μM, MOI 0.6, Plate 1, hydrochloride): 94.81% and 98.18%
Inhibition (SARS-CoV2; 0.15 μM, MOI 0.6, Plate 2, hydrochloride): 99.76%
Inhibition (SARS-CoV2; 0.15 μM, title MOI 0.6 (text MOI 1.3), Plate 1, hydrochloride): 100.5487% and 99.6%
Inhibition (SARS-CoV2; 0.15 μM, title MOI 0.6 (text MOI 1.3), Plate 2, hydrochloride): 95.57% and 98.32%
Inhibition (SARS-CoV2; 0.3 μM, MOI 0.6, Plate 1, hydrochloride): 99.8055%
Inhibition (SARS-CoV2; 0.3 μM, MOI 0.6, Plate 2, hydrochloride): 99.76%
Inhibition (SARS-CoV2; 0.3 μM, title MOI 0.6 (text MOI 1.3), Plate 1, hydrochloride): 99.49%
Inhibition (SARS-CoV2; 0.3 μM, title MOI 0.6 (text MOI 1.3), Plate 2, hydrochloride): 97.81%
Inhibition (SARS-CoV2; 0.6 μM, MOI 0.6, Plate 1, hydrochloride): 99.76%
Inhibition (SARS-CoV2; 0.6 μM, MOI 0.6, Plate 2, hydrochloride): 100.0302%

CCN(CC)CCCC(C)Nc1ccnc2cc(Cl)ccc12 (stereo not shown) [chloroquine]
IC50 (2019-nCoV): 1.13 µM
